Data taken from patent US20260226084A1, “DUAL RAF AND TUBULIN INHIBITORS AND METHODS OF USE THEREOF” (Deciphera Pharmaceuticals, LLC, priority 2023, published 2026).
Like-named read-outs stand apart in the source and are kept apart here.

Tests used:
[1] = molecular target: T1, B-Raf kinase (SEQ ID NO: 1) (Homo sapiens, UniProt P15056); experiment: Biochemical Assay for B-Raf (coupled pyruvate kinase/lactate dehydrogenase assay); conditions: 1 mM ATP; read-out: BRAF (inhibition of biochemical activity, IC50)
T1 construct: GST (N); purchased Sigma

[2] = molecular target: T2, C-Raf kinase (SEQ ID NO: 2) (Homo sapiens, UniProt P04049, Y340D/Y341D); experiment: Biochemical Assay for C-Raf (coupled pyruvate kinase/lactate dehydrogenase assay); conditions: 1 mM ATP; read-out: CRAF (inhibition of biochemical activity, IC50)
T2 construct: C-Raf residues 306-end; Y340D, Y341D with; GST (N); purchased Sigma

[3] = system: MiaPaca-2 cells; experiment: MiaPaca-2 Cell Proliferation Assay; format: cell-based; conditions: Table 2, read-out: Inhibition of cell proliferation in MiaPaca-2 (IC50 class)
Method: Miapaca-2 cells (catalog #CRL-1420) are obtained from the American Type Culture Collect (ATTC, Manassas, VA). Briefly, cells were grown in DMVEM supplemented with 10 characterized fetal bovine serum (Invitrogen, Carlsbad, CA), 2.5% New Zealand sourced horse serum and 1 Penicillin/Streptomycin/L-Glutamine at 37° C., 5 CO2, and 95% humidity. Cells are expanded until reaching 70-95% confluency at which point they are sub-cultured or harvested for assay use. A serial dilution of test compound is dispensed into a 96-well black clear bottom plate in triplicate. Three thousand cells are added per well in 200 μL complete growth medium in the 96-well plate. Plates are incubated for 67 to 72 h at 37° C., 5% CO2, and 95% humidity. At the end of the incubation, 40 μL of a 440 μM solution of resazurin (Sigma, St. Louis, MO) in PBS is added to each well of the plate and plates are incubated for an additional 5 to 6 h at 37° C., 5% CO2, and 95% humidity. Plates are read on a Synergy2 or equivalent reader (Biotek, Winooski VT) using an excitation of 540 nm and an emission of 600 nm. Data is analyzed using Prism software (Graphpad, San Diego, CA) to calculate IC50 values.

[4] = system: HCT-116 cells; experiment: HCT-116 Cell Proliferation Assay; format: cell-based; conditions: Table 2, read-out: Inhibition of cell proliferation in HCT-116 (IC50 class)
Method: HCT-116 cells (catalog #CCL-247) are obtained from the American Type Culture Collect (ATCC, Manassas, VA). Briefly, cells are grown in McCoy's 5A supplemented with 10% characterized fetal bovine serum (Invitrogen, Carlsbad, CA) and 1% Penicillin/Streptomycin/L-Glutamine at 37° C., 5% CO2, and 95% humidity. Cells are expanded until reaching 70-95% confluency at which point they are subcultured or harvested for assay use. A serial dilution of test compound is dispensed into a 384-well black clear bottom plate in triplicate. 375 cells are added per well in 50 μL complete growth medium in the 384-well plate. Plates are incubated for 67 to 72 hours at 37° C., 5% CO2, and 95% humidity. At the end of the incubation, 40 μL of a […] solution of resazurin (Sigma, St. Louis, MO) in PBS is added to each well of the plate and plates are incubated for an additional 4 to 5 h at 37° C., 5% CO2, and 95% humidity. Plates are read on a Synergy2 or equivalent reader (Biotek, Winooski, VT) using an excitation of 540 nm and an emission of 600 nm. Data is analyzed using Prism software (Graphpad, San Diego, CA) to calculate IC50 values.

[5] = system: HPAF-II cells; experiment: HPAF-II Cell Proliferation Assay; format: cell-based; conditions: HPAF-II cells, Table 2, read-out: Inhibition of cell proliferation in HPAF-II (IC50 class)
Method: (§1) HPAF-II cells (catalog #CRL-1997) are obtained from the American Type Culture Collect (ATCC, Manassas, VA). Briefly, cells are grown in Minimum Essential Media supplemented with 10% characterized fetal bovine serum (Invitrogen, Carlsbad, CA) and 1% Penicillin/Streptomycin/L-Glutamine at 37° C., 5% CO2, and 95% humidity. Cells are expanded until reaching 70-95% confluency at which point they are sub-cultured or harvested for assay use. A serial dilution of test compound is dispensed into a 384-well black clear bottom plate in triplicate. 750 cells are added per well in 50 μL complete growth medium in the 384-well plate. Plates are incubated for 115 to 120 hours at 37° C., 5% CO2, and 95% humidity. At the end of the incubation, 40 μL of a 440 μM solution of resazurin (Sigma, St. Louis, MO) in PBS is added to each well of the plate and plates are incubated for an additional 18 to 24 hours at 37° C., 5% CO2, and 95% humidity. Plates are read on a Synergy2 or equivalent reader (Biotek, Winooski, VT) using an excitation of 540 nm and an emission of 600 nm. Data is analyzed using Prism software (Graphpad, San Diego, CA) to calculate IC50 values.

[6] = system: Pa16c cells; experiment: Pa16c Cell Proliferation Assay; format: cell-based; conditions: Table 2, read-out: Inhibition of cell proliferation in Pa16c (IC50 class)
Method: as §1, with “Pa16c” for “HPAF-II”, “cells” for “cells (catalog #CRL-1997)”, “Dr. Channing Der, University of North Carolina at Chapel Hill.” for “the American Type Culture Collect (ATCC, Manassas, VA).”, “Dulbecco's Modified Eagle Medium” for “Minimum Essential Media”, “67” for “115”, “72 h” for “120 hours”

[7] = Homo sapiens, MIA PaCa-2, MiaPaca-2 cells
[8] = Homo sapiens, HCT-116, HCT-116 cells

T1 sequence (P15056 416-766): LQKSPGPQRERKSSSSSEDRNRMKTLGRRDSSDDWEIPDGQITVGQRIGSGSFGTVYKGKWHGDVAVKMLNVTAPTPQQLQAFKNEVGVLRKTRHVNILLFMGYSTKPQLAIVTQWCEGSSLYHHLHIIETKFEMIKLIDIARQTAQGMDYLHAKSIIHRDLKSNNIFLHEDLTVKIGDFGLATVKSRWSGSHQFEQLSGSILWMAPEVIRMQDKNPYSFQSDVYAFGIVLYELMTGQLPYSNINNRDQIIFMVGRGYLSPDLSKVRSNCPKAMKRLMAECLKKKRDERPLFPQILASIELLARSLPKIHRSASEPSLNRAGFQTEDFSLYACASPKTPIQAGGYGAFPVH
T2 sequence (P04049 307-648 Y340D/Y341D): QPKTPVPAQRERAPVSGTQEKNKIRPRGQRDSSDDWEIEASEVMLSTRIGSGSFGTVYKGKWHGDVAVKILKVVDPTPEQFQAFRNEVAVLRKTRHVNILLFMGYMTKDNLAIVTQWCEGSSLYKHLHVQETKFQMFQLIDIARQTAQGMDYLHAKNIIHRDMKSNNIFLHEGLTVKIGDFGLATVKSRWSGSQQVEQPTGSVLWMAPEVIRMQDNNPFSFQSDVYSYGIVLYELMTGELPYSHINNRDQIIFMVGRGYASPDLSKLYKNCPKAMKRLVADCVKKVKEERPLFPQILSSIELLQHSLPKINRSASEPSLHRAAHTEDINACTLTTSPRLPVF

| Structure (SMILES) | IC50 [1] | IC50 [2] | IC50 [3, 7] | IC50 [4, 8] | IC50 ([5]; Homo sapiens, HPAF-II) | IC50 [6] | IC50 ([3]; MiaPaca-2 cells) | IC50 ([4]; HCT-116 cells) | IC50 [5] |
| --- | --- | --- | --- | --- | --- | --- | --- | --- | --- |
| Cc1cc(-c2cc(NC(=O)c3cncc(C(F)(F)F)c3)ccc2C)cc(-c2ccnc(NC(=O)C3CC3)c2)n1 [Example 81] | < 100 nM | < 100 nM |  |  |  | 1000 to 10000 nM | 1000 to 10000 nM | 100 to 500 nM | 1000 to 10000 nM |
| Cc1ccc(NC(=O)c2cc(C(F)(F)F)cnn2)cc1-c1ccnc(-c2ccnc(NC(=O)CC3CC3)c2)c1 [Example 22] | 100 to 500 nM | < 100 nM | 100 to 500 nM | 100 to 500 nM | < 100 nM | < 100 nM |  |  |  |
| O=C(Nc1cc(-c2ccnc(-c3ccnc(NC(=O)C4CC4)c3)c2)c(F)cc1F)c1cc(C(F)(F)F)cnn1 [Example 46] | < 100 nM | < 100 nM | 1000 to 10000 nM | 1000 to 10000 nM | 1000 to 10000 nM | 1000 to 10000 nM |  |  |  |
| Cc1ccc(NC(=O)c2cc(C(F)(F)F)cnn2)cc1-c1ccnc(-c2ccnc(NC(=O)C3CCC3)c2)c1 [Example 8] | < 100 nM | < 100 nM | 100 to 500 nM | 100 to 500 nM | < 100 nM | < 100 nM |  |  |  |
| Cc1ccc(NC(=O)c2cc(C)c(C)nn2)cc1-c1ccnc(-c2ccnc(NC(=O)C3CC3)c2)c1 [Example 97] | < 100 nM | < 100 nM | 1000 to 10000 nM | 1000 to 10000 nM | 1000 to 10000 nM | 1000 to 10000 nM |  |  |  |
| Cc1ccc(NC(=O)c2cc(C(F)(F)F)cnn2)cc1-c1ccnc(-c2ccnc(NC(=O)C3CNCC3(F)F)c2)c1 (stereo not drawn) [Example 92, N-[3-[2-[2-[(4,4-difluoropyrrolidine-3-carbonyl)amino]-4-pyridyl]-4-pyridyl]-4-methyl-phenyl]-5-(trifluoromethyl)pyridazine-3-carboxamide] | < 100 nM | < 100 nM | 100 to 500 nM | 100 to 500 nM | 500 to 1000 nM | 500 to 1000 nM |  |  |  |
| Cc1ccc(NC(=O)c2cc(Cl)cnn2)cc1-c1ccnc(-c2ccnc(NC(=O)C3CC3)c2)c1 [Example 40] | < 100 nM | < 100 nM | 500 to 1000 nM | 100 to 500 nM | 500 to 1000 nM | 500 to 1000 nM |  |  |  |
| Cc1ccc(NC(=O)c2cc(C(F)(F)F)cnn2)cc1-c1ccnc(-c2ccnc(NC(=O)C3CCN(C)C3)c2)c1 (stereo not drawn) [Example 51] | < 100 nM | < 100 nM | 100 to 500 nM | 100 to 500 nM | 100 to 500 nM | 500 to 1000 nM |  |  |  |
| O=C(Nc1ccc(F)c(-c2ccnc(-c3ccnc(NC(=O)C4CC4)c3)c2)c1)c1cc(C(F)(F)F)cnn1 [Example 47] | < 100 nM | < 100 nM | 1000 to 10000 nM | 1000 to 10000 nM | 1000 to 10000 nM | 1000 to 10000 nM |  |  |  |
| Cc1ccc(NC(=O)c2cncc(C(C)(F)F)c2)cc1-c1ccnc(-c2ccnc(NC(=O)C3CC3)c2)c1 [Example 82] | < 100 nM | < 100 nM | 500 to 1000 nM | 100 to 500 nM | 500 to 1000 nM | 1000 to 10000 nM |  |  |  |
| Cc1ccc(NC(=O)c2cc(C(F)(F)F)cnn2)cc1-c1ccnc(-c2ccnc(NC(=O)CN(C)C)c2)c1 [Example 52] | < 100 nM | < 100 nM | 100 to 500 nM | 100 to 500 nM | 100 to 500 nM | 500 to 1000 nM |  |  |  |

The next lines start with results.

| IC50 [1] | IC50 [2] | IC50 [3, 7] | IC50 [4, 8] | Structure (SMILES) | IC50 ([5]; Homo sapiens, HPAF-II) | IC50 [6] | IC50 ([3]; MiaPaca-2 cells) | IC50 ([4]; HCT-116 cells) | IC50 [5] |
| --- | --- | --- | --- | --- | --- | --- | --- | --- | --- |
| < 100 nM | < 100 nM | 100 to 500 nM | < 100 nM | Cc1ccc(NC(=O)c2cncc(C(C)(C)C#N)c2)cc1-c1ccnc(-c2ccnc(NC(=O)C3CC3)c2)c1 [Example 105] | 100 to 500 nM | 1000 to 10000 nM |  |  |  |
| 100 to 500 nM | < 100 nM | < 100 nM | < 100 nM | Cc1ccc(NC(=O)c2cc(C(F)(F)F)cnn2)cc1-c1ccnc(-c2ccnc(NCCO)c2)c1 [Example 129] | < 100 nM | 100 to 500 nM |  |  |  |
| < 100 nM | < 100 nM | 100 to 500 nM | 100 to 500 nM | Cc1ccc(NC(=O)c2cc(C(F)(F)F)cnn2)cc1-c1cc(N[C@H](C)CO)cc(-c2cc(NC(=O)C3CC3)ncn2)c1 [Example 123] | 100 to 500 nM | < 100 nM |  |  |  |
| < 100 nM | < 100 nM | 1000 to 10000 nM | 1000 to 10000 nM | Cc1ccc(NC(=O)c2cc3c(nn2)CCC3)cc1-c1ccnc(-c2ccnc(NC(=O)C3CC3)c2)c1 [Example 98] | 1000 to 10000 nM | 1000 to 10000 nM |  |  |  |
| < 100 nM | < 100 nM | < 100 nM | < 100 nM | Cc1ccc(NC(=O)c2cc(C3CC3)cnn2)cc1-c1cc(N[C@H](C)CO)nc(-c2cn[nH]c2)c1 [Example 117] | < 100 nM | < 100 nM |  |  |  |
| < 100 nM | < 100 nM | 500 to 1000 nM | < 100 nM | Cc1ccc(NC(=O)c2cc(C3CC3)cnn2)cc1-c1cc(NCCO)nc(-c2ccnc(NC(=O)C3CC3)c2)n1 [Example 103] | 500 to 1000 nM | 1000 to 10000 nM |  |  |  |
| 500 to 1000 nM | 500 to 1000 nM | 500 to 1000 nM | 100 to 500 nM | Cc1ccc(NC(=O)c2cc(C(F)(F)F)cnn2)cc1-c1ccnc(-c2cscn2)c1 [Example 142] | 100 to 500 nM | 100 to 500 nM |  |  |  |
| 100 to 500 nM | < 100 nM | 100 to 500 nM | 100 to 500 nM | Cc1ccc(NC(=O)c2cc(C3CC3)cnn2)cc1-c1ccnc(-c2cnsc2)c1 [Example 136] | 100 to 500 nM | 100 to 500 nM |  |  |  |
| < 100 nM | < 100 nM | 100 to 500 nM | 100 to 500 nM | CNCC(=O)Nc1cc(-c2cc(-c3cc(NC(=O)c4cc(C5CC5)cnn4)ccc3C)ccn2)ccn1 [Example 107] | 100 to 500 nM | 100 to 500 nM |  |  |  |
